Laboratory results taken from patent publication US5728686A, “Alkylxanthine phosphonates and alkylxanthine phosphine oxides and their use as pharmaceuticals” (Hoechst Aktiengesellschaft, priority 1996, dated 1998).
Values after ≈ are worked out from the molar mass of the structure shown.

Assays:
[1] = system: isolated guinea pig trachea, agonist PGF2α; experiment: antagonist of PGF2α-induced contraction of isolated guinea pig trachea; type: cell-based; settings: Cavia porcellus, 37° C., read-out: Anticontractile action (trachea), PGF2α: concentration range for dilatation corresponding to ED50 range
From the text: (§1) 3. Activity as antagonist of the contraction of isolated guinea pig trachea
(§2) The compounds of the formula I are used as antagonists of the contraction of isolated guinea pig trachea. The agonists employed were PGF2α (Upjohn, Germany), calcium ionophore A23187 (Calbiochem, Bad Soden, Germany), and substance P (American Peptide Comp., USA):
Inhibition of contractions which are induced by this cyclooxygenase product is only possible by competitive antagonism at the receptor or of the subsequent signal pathway.
(§3) Preparation of the organ sections and experimental procedure:
(§4) The guinea pig is sacrificed by means of terminal laughing gas anaesthesia. The trachea is exposed along its entire length and cut into 15 individual cartilage rings. 5 rings in each case are tied together to give a chain and fixed in the organ bath under a preload of 3 g. After an equilibration time of 45 minutes, a contraction is produced using the agonist. The antagonist (test preparation) is added cumulatively on the plateau of the maximum. Evaluation is carried out in % force change relative to the contraction maximum. The experimental procedure is carried out at 37° C.; the physiological nutrient solution used is a modified Krebs-Henseleit solution through which is bubbled 95% by volume of O2, 5% by volume of CO2.
(§5) Experimental animals: albino guinea pigs (Hattersheim Animal Breeding Institute, Kastengrund, Germany), weight: 200 to 300 g, sex male or female.
(§6) Vehicle: double-distilled water, ethanol or isopropanol; administration: into the organ bath number of administration: cumulative, in SP individual doses
(§7) All numerical values are indicated in the unit μg/ml and relate to the concentration range of the tested compound of the formula I according to the invention (see example numbers in Table 1) which is necessary in order to cause a dilatation which corresponds to the ED50 range.

[2] = system: isolated guinea pig trachea, agonist calcium ionophore A23187; experiment: antagonist of calcium ionophore A23187-induced contraction of isolated guinea pig trachea; type: cell-based; settings: Cavia porcellus, 37° C., read-out: Anticontractile action (trachea), Ca ionophore: concentration range for dilatation corresponding to ED50 range
From the text: as §1, §2
b) Calcium ionophore A23187 (Calbiochem, Bad Soden) acts by increased uptake of calcium ions, and an activation of all calcium-dependent signal cascades in the cell. Lipoxygenase inhibitors, in particular, and generally antiinflammatory substances show effects in this model.
as §3, §4, §5, §6, §7

[3] = system: isolated guinea pig trachea, agonist substance P; experiment: antagonist of substance P-induced contraction of isolated guinea pig trachea; type: cell-based; settings: Cavia porcellus, individual doses, 37° C., read-out: Anticontractile action (trachea), SP antagonism: concentration range for dilatation corresponding to ED50 range
From the text: as §1, §2
The antagonism is possible on the one hand due to specific receptor antagonists, and on the other hand also due to inhibition of the subsequent signal pathway. Preparations which directly or indirectly increase the intracellular concentration of cyclic nucleotides in particular show spasmolytic properties here.
as §3, §4, §5, §6, §7

[4] = system: isolated guinea pig lung strips, Platelet activating factor (PAF); experiment: antagonist of PAF-induced contraction of isolated guinea pig lung strips; type: cell-based; settings: Cavia porcellus, read-out: Anticontractile action (lung), PAF: concentration range corresponding to the IC50 value
From the text: (§8) 4. Activity as an antagonist of the contraction of isolated guinea pig lung strips
(§9) The test carried out is based on the same principle as the test indicated in the pharmacological test 3; however, lung strips are used here.
as §3
(§10) The guinea pig is sacrificed under laughing gas anaesthesia. The entire pulmonary tract is exposed starting from the trachea. The lobes of the lung are cut in a circular fashion such that 3 mm wide strips are formed. The strips of the upper lobes are divided in order to obtain a total of six approximately equal size strips. The strips are suspended in the organ baths under a preload of 4 g. The nutrient solutions used are modified Krebs Henseleit solutions. When using "Platelet activating factor" (PAF) as an […], the composition of this solution corresponds to that for the agonist SP in "Test 3"; for the agonist LTD4 a Krebs Henseleit solution as in the case of the agonist KCl (Test 3) is used. 95% by volume O2, 5% by volume CO2 is used for bubbling through the bath; the bath temperature is 37° C. The experimental procedure is carried out in a therapeutically cumulative methodology, using the dosage graduations 1, 3, 6 and 10 μg/ml.
(§11) The experimental animals, organ bath, vehicles and manner of administration correspond to that stated in pharmacological test 3.
(§12) All numerical values are indicated in the unit μg/ml and relate to the concentration range of tested compound of the formula I (see example numbers in Table 1) which is necessary in order to cause a contraction which corresponds to the IC50 value.

[5] = system: isolated guinea pig lung strips, leukotriene D4 (LTD4); experiment: antagonist of LTD4-induced contraction of isolated guinea pig lung strips; type: cell-based; settings: Cavia porcellus, read-out: Anticontractile action (lung), LTD4: concentration range corresponding to the IC50 value
From the text: as §8, §9, §3, §10, §11, §12

phosphodiesterase III = experiment: inhibition of phosphodiesterase III activity; type: biochemical; settings: at 100 μM
Experimental: 5. Inhibition of phosphodiesterase III activity
The test is carried out using phosphodiesterase from Boehringer Mannheim (Mannheim, Germany), Order No. 108 243 according to the method of T. SAEKI, I. SAITO, Biochem. Pharm. 46, No. 5, […], pages 833-839.
All numerical values are indicated in % inhibition of the enzyme activity at 100 μM of the corresponding compound of the formula I.

[6] = system: muscle group (gastrocnemius, plantaris and soleus) of the immobilized right rear extremity; experiment: rat muscle function test: direct electrical stimulation of muscle group after 3 weeks' immobilization; type: in vivo, male Wistar rats; settings: oral, 1x per day for 3 weeks, as a rule 25 mg/kg, ≤-12% classified as active; for Force (force under the contraction curve, right/left difference): isometric stimulation, control difference approx. 25%; for Work (performed work, right/left difference): isotonic stimulation, control approx. -25%
From the text: (§13) 1. Activity in the rat muscle function test
(§14) Male Wistar rats (body weight about 300 g) were kept under standard conditions with feed and water ad libitum. The right rear extremity was immobilized by fitting a kind of "shoe" to the animals under short-term anaesthesia. Two ergonomically fitted halves of the "shoe" were cast from a liquid plastic material which is also used for the production of dental prostheses, these were put onto the animal under brief anaesthesia and joined with the aid of a wire. The material is light but hard, so that the animals cannot gnaw the material, and the "shoe" can be opened at any time to examine the condition of the immobilized extremity. The two halves were moreover padded out with chamois leather in order to avoid compressions and possible injuries due to rubbing. The system also has the advantage that the angle of immobilization is standardized in all animals; this would not be possible with a plaster cast. The chosen angle allows the animals to take up a normal sitting position despite the "shoe" and also to carry the body weight using this extremity. Only complete stretching or bending of the leg is impossible.
(§15) After 3 weeks' immobilization of the right rear extremity and simultaneous oral administration of test preparations (1× per day using a stomach tube; as a rule 25 mg/kg of body weight, in carboxymethylcellulose, the animals were weighed and anaesthetized with pentobarbital (35 mg/kg i.p.). Functional parameters were measured during direct electrical stimulation of a muscle group (gastrocnemius, plantaris and soleus). This muscle group, merely called "muscle" in the following, was exposed at the ankle tendon and tied to a force transducer via the tendon.
To determine the contractile force, the muscles were stimulated isometrically, i.e. a preload of 0.5N was applied and the muscle was stimulated by means of a series of electrical pulses, which led to a maximum contraction, every 0.7 sec for 80 msec for a period of 15 min. […] The area under this contraction curve was evaluated and the difference in percent between the right atrophic and left normal muscle compared (force under the contraction curve as difference in percent (Δ%)). The difference in the control group is approximately 25%.
An isotonic muscle stimulation was used to determine the performed work of the muscle over time. In this type of measurement, the shortening of the muscle during contraction is used as a basis. To this end, a preload which corresponds to the body weight was applied to the muscles. A series of stimulation pulses (80 msec) were triggered every 3 sec and the muscle was stimulated for 15 min. The data (contraction force and distance travelled) were converted to the work performed in the unit J using an automated system. The difference in the work performed between the immobilized atrophic and the normal muscle in the control animals was approximately -25%.
Values which are positive indicate that the functional parameters of the immobilized muscle were better than those of the contralateral normal muscle.

soleus muscle = experiment: rat muscle function test: muscle weight (atrophy of immobilized extremity); type: in vivo, male Wistar rats; settings: oral, 1x per day for 3 weeks, as a rule 25 mg/kg, difference ≤25% classified as an effect
From the text: as §13, §14
In spite of this, a significant decrease in the skeletal muscle mass (atrophy) of the immobilized extremity occurred, to be precise up to -35% in comparison with the contralateral nonimmobilized rear extremity. As the soleus muscle was the most severely affected, the changes in muscle weight after administration of preparation shown in Table 1 relate to this muscle. A difference of ≤25% between the right immobilized and left non-immobilized rear extremity was classified as an effect.
as §15

[7] = system: Endotoxin (LPS) from Salmonella abortus equi; experiment: effect on endotoxin fatality (LPS-induced septic shock); type: in vivo, female NMRI mice; settings: 25 mg/kg i.p. at the same time as LPS 60 mg/kg i.p.; 72 hours; vs placebo control
Experimental: 2. Test for effect on endotoxin fatality
Individual injections of lipopolysaccharide (LPS), from gram-negative bacteria, lead via a series of various symptoms to septic shock, which usually turns out to be fatal. Endotoxin (LPS) from Salmonella abortus equi in a dose of 60 mg/kg i.p. leads to shock and to death with at most 72 h p.a. (the dose of 60 mg/kg corresponds to approximately 1.20 mg of LPS/animal).
The experimental animals used are female NMRI mice from the Hoechst AG/Hattersheim animal breeding unit having a body weight of 22 to 24 g.
The test substances administered intraperitoneally (i.p.) in an administration volume of 10 ml/kg at the same time as the LPS. The number of surviving animals after 72 hours' LPS administration is indicated in comparison to a placebo control. The number of tested animals per group is 5; dose 25 mg/kg.

SMILES | EC50 [1] | EC50 [2] | EC50 [3] | IC50 [4] | IC50 [5] | PDE III Inhibition (phosphodiesterase III) | Force (force under the contraction curve, right/left difference) [6] | Work (performed work, right/left difference) [6] | Muscle weight (right/left difference) (soleus muscle) | Inhibition of mortality [7]
CCOP(=O)(CCCCn1cnc2c1c(=O)n(CC)c(=O)n2C)OCC [Example 4, Diethyl [4-(1-ethyl-3-methylxanthin-7-yl)butyl]phosphonate] | > 10 µg/mL | > 10 µg/mL | 10 to 30 µg/mL (≈ 25.9 to 77.6 µM) | 1 to 3 µg/mL (≈ 2.59 to 7.76 µM) |  |  |  |  |  | 
CCOP(=O)(CCCCn1c(=O)c2c(ncn2Cc2ccccc2)n(C)c1=O)OCC [Example 23, Diethyl [4-(7-benzyl-3-methylxanthin-1-yl)butyl]phosphonate] | > 10 µg/mL | > 10 µg/mL | 10 to 30 µg/mL (≈ 22.3 to 66.9 µM) | 1 to 3 µg/mL (≈ 2.23 to 6.69 µM) | 1 to 3 µg/mL (≈ 2.23 to 6.69 µM) | 65% |  |  |  | 
CCOP(=O)(CCCCn1c(=O)c2[nH]cnc2n(C)c1=O)OCC [Example 24, Diethyl [4-(3-methylxanthin-1-yl)-butyl]phosphonate] | > 10 µg/mL |  | 30 to 60 µg/mL (≈ 83.7 to 167 µM) |  |  |  | +6 Δ % | -5 Δ % | -20 Δ % | 100%
CCOP(=O)(CCCCn1c(=O)c2c(ncn2CC)n(C)c1=O)OCC [Example 30, Diethyl [4-(7-ethyl-3-methylxanthin-1-yl)butyl]phosphonate] | > 10 µg/mL | 10 µg/mL (≈ 25.9 µM) | 10 to 30 µg/mL (≈ 25.9 to 77.6 µM) | 3 to 6 µg/mL (≈ 7.76 to 15.5 µM) | 6 to 10 µg/mL (≈ 15.5 to 25.9 µM) |  | +2 Δ % | +5 Δ % | 0 Δ % | 
CCOP(=O)(CCCn1c(=O)c2c(ncn2CC)n(C)c1=O)OCC [Example 34, Diethyl [3-(7-ethyl-3-methylxanthin-1-yl)propyl]phosphonate] |  |  |  |  |  | 82% | -5 Δ % | -11 Δ % |  | 60%
CCOP(=O)(CCCn1c(=O)c2c(ncn2CCOC)n(C)c1=O)OCC [Example 35, Diethyl [3-(7-methoxyethyl-3-methylxanthin-1-yl)propyl]phosphonate] |  | > 10 µg/mL | 30 to 60 µg/mL (≈ 74.6 to 149 µM) | 3 to 6 µg/mL (≈ 7.46 to 14.9 µM) |  |  |  |  |  | 
CCCn1cnc2c1c(=O)n(CCCCP(=O)(OCC)OCC)c(=O)n2CC [Example 38, Diethyl [4-(3-ethyl-7-propylxanthin-1-yl)butyl]phosphonate] | > 10 µg/mL | 10 µg/mL (≈ 24.1 µM) | 10 to 30 µg/mL (≈ 24.1 to 72.4 µM) | 1 to 3 µg/mL (≈ 2.41 to 7.24 µM) |  |  | -10 Δ % | -3 Δ % |  | 60%
CCCn1cnc2c1c(=O)n(CCCP(=O)(OCC)OCC)c(=O)n2C1CC1 [Example 39] |  |  |  |  | 3 to 6 µg/mL (≈ 7.27 to 14.5 µM) | 65% |  |  |  | 100%
CCCCn1cnc2c1c(=O)n(CCCP(=O)(OCC)OCC)c(=O)n2CCCC [Example 40, Diethyl [3-(3,7-dibutylxanthin-1-yl)propyl]phosphonate] |  |  |  |  |  |  |  |  |  | 100%
